How the values were obtained:
[1] = tested on: MNK2 (MNK2a or MNK2b) or MNK1; settings: cell culture cells transfected with MNK2 (MNK2a or MNK2b) or MNK1; cited from earlier work
[2] = biological target: MNK2a (pre-activated GST-MNK2a) (Homo sapiens (Human), UniProt Q9HBH9); test: MNK2a in vitro kinase assay (assay 1), ADP-Glo; assay type: biochemical; settings: read-out: Mnk2 IC50
Experimental: A. MNK2a In Vitro Kinase Assay (Assay 1)
The inhibition of kinase activity of MNK2a was assessed using pre-activated GST-MNK2a. The white, 384-well OptiPlate F plates were purchased from PerkinElmer. The ADP-Glo Kinase Assay (including ultra pure ATP) was purchased from Promega (V9103). Activated MNK2a was obtained as described in WO2011/104340. […] ID No. 5 of WO 2011/104340 by the C-terminal —CONH2 group, was purchased from Thermo Fisher Scientific. All other materials were of highest grade commercially available. Compounds are tested in either serial dilutions or single dose concentrations. The compound stock solutions are 10 mM in 100% DMSO The serial compound dilutions are prepared in 100% DMSO followed by 1:27.3 intermediate dilution in assay buffer. The final DMSO concentration in assay will be <3%.
In the 384-well plates 3 μl of test compound from the intermediate dilution is mixed with 4 μl of the activated MNK2 enzyme (final concentration of 10 nM) and 4 μl of the peptide (final concentration of 25 μM)/ultra pure ATP (final concentration of 20 μM), all dissolved in assay buffer. This step is followed by an incubation time of 90 min, then 10 μl of ADP Glo reagent are added, followed by 40 min of incubation. Then 20 μl of kinase detection reagent are admixed. The plates are sealed and after an incubation period of 30 min, the luminescence signal is measured in an Envision reader to determine the amount of produced ADP. All incubation steps are performed at room temperature.
The assay buffer consists of 20 mM HEPES, 2 mM DTT, 0.01% BSA, 20 mM MgCl2 and 0.1% Pluronic F-127.
The luminescent signal generated is proportional to the ADP concentration produced and is correlated with activated MNK2 activity. The analysis of the data is performed by the calculation of the percentage of ATP consumption of activated MNK2 in the presence of the test compound compared to the consumption of ATP in the presence of activated MNK2 without compound. (RLU(sample)−RLU(low control))*100/(RLU(high value)−RLU(low control))
[RLU=Relative Luminescence Units]
Values of more than 100% CTL are normally related to compound/sample specific physico-chemical properties (e.g. solubility, light absorbance, fluorescence).
IC50 values based on dose response curves are calculated with the AssayExplorer software.

[3] = biological target: MNK1a (pre-activated GST-MNK1a) (Homo sapiens (Human), UniProt Q9BUB5); test: MNK1 in vitro kinase assay (assay 2), Z'-LYTE; assay type: biochemical
Source text: B. MNK1 In Vitro Kinase Assay (Assay 2)
MNK1 Data can be obtained from the MNK1 Z′-LYTE® assay. The MNK1 Z′-LYTE® screening protocol and assay conditions are also described on www.invitrogen.com.
The assay is described as follows:
The Z′-LYTE® biochemical assay employs a fluorescence-based, coupled-enzyme format and is based on the differential sensitivity of phosphorylated and non-phosphorylated peptides to proteolytic cleavage. The peptide substrate is labeled with two fluorophores—one at each end—that make up a FRET pair.
In the primary reaction, the kinase transfers the gamma-phosphate of ATP to a single tyrosine, serine or threonine residue in a synthetic FRET-peptide. In the secondary reaction, a site-specific protease recognizes and cleaves non-phosphorylated FRET-peptides. Phosphorylation of FRET-peptides suppresses cleavage by the Development Reagent. Cleavage disrupts FRET between the donor (i.e., coumarin) and acceptor (i.e., fluorescein) fluorophores on the FRET-peptide, whereas uncleaved, phosphorylated FRET-peptides maintain FRET. A ratiometric method, which calculates the ratio (the Emission Ratio) of donor emission to acceptor emission after excitation of the donor fluorophore at 400 nm, is used to quantitate reaction progress, as shown in the equation below. Emission Ratio=Coumarin Emission(445 nm)/Fluorescein Emission(520 nm)
The inhibition of kinase activity of MNK1a was assessed using pre-activated GST-MNK1a. The 2×MKNK1 (MNK1) mixture is prepared in 50 mM HEPES pH 7.5, 0.01% BRIJ-35, 10 mM MgCl2, 4 mM MnCl2, 1 mM EGTA, 2 mM DTT. The final 10 μL Kinase Reaction consists of 13.5-54 ng MKNK1 (MNK1) and 2 μM Ser/Thr 07 in 50 mM HEPES pH 7.5, 0.01% BRIJ-35, 10 mM MgCl2, 2 mM MnCl2, 1 mM EGTA, 1 mM DTT. After the 1 hour Kinase Reaction incubation, 5 μL of a 1:32768 dilution of Development Reagent A is added.
The Test Compounds are screened in 1% DMSO (final) in the well.
All Peptide/Kinase Mixtures are diluted to a 2×working concentration in the MNK1 Kinase Buffer.
All ATP Solutions are diluted to a 4×working concentration in Kinase Buffer (50 mM HEPES pH 7.5, 0.01% BRIJ-35, 10 mM MgCl2, 1 mM EGTA).
Development Reagent Solution:
The Development Reagent is diluted in Development Buffer
Bar-coded Corning, low volume NBS, 384-well plate (Corning Cat. #3676)
1. 2.5 μL—4×Test Compound
2. 5 μL—2×Peptide/Kinase Mixture
5. 60-minute Kinase Reaction incubation at room temperature
6. 5 μL—Development Reagent Solution
8. 60-minute Development Reaction incubation at room temperature
9. Read on fluorescence plate reader and analyze the data
The following equations are used for each set of data points:
Correction for Background Fluorescence: FISample−FITCFI Ctl Emission Ratio (using values corrected for background fluorescence):Coumarin Emission (445 nm)/Fluorescein Emission (520 nm)
% Phosphorylation (% Phos): 1−((Emission Ratio×F100%)−C100%)/((C0%−C100%)+[Emission Ratio×(F100%−F0%)])*100
% Inhibition: 1−(% PhosSample/% Phos0% Inhibition Ctl)*100 FI=Fluorescence Intensity C100%=Average Coumarin emission signal of the 100% Phos. Control C0%=Average Coumarin emission signal of the 0% Phos. Control F100%=Average Fluorescein emission signal of the 100% Phos. Control F0%=Average Fluorescein emission signal of the 0% Phos. Control
SelectScreen® Kinase Profiling Service uses XLfit from IDBS. The dose response curve is curve fit to model number 205 (sigmoidal dose-response model).

MNK2a (pre-activated GST-MNK2a), sequence (Q9HBH9 whole entry): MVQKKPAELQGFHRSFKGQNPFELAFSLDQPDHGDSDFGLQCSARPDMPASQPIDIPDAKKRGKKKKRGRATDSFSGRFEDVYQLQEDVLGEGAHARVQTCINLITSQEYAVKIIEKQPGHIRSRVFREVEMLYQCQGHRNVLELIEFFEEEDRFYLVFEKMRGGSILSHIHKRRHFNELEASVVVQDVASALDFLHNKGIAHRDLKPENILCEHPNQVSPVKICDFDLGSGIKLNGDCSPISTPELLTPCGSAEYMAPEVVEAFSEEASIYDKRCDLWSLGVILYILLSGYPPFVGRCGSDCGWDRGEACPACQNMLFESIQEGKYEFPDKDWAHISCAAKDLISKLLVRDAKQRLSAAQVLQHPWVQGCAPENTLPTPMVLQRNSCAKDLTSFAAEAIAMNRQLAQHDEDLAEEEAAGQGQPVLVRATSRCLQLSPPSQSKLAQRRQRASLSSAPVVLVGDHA
MNK1a (pre-activated GST-MNK1a), sequence (Q9BUB5 other isoform, or with tags, fused parts or gaps): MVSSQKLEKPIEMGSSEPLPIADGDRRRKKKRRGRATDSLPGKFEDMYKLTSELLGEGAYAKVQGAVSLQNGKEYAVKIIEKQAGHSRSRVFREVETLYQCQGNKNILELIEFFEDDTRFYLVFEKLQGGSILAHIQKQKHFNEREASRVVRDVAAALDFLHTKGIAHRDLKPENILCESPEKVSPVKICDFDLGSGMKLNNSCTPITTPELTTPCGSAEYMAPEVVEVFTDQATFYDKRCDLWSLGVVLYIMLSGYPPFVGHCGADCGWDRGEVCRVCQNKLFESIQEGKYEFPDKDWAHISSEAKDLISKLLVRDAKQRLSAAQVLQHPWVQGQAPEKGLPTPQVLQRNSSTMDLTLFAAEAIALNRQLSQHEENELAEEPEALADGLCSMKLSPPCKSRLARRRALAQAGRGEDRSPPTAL

IC50 [2] [nM]	IC50 [3] [nM]	Compound	reduction of phosphorylated elF4E [1]
–	–	Nc1ncnc2n[nH]c(Nc3ccc(F)cc3)c12 [CGP57380]	strong reduction
3.3	180	Cc1c(OCC2CC2)c(N=S(C)(C)=O)cc2ncnc(Nc3ccc(F)cc3O[C@H](C)C(F)(F)F)c12 [Example 3.01]	–
2.6	113	COCCOc1c(N=S(C)(C)=O)cc2ncnc(Nc3ccc(F)cc3O[C@H](C)C(F)(F)F)c2c1C [Example 3.02]	–
6.5	282	Cc1c(OC(C)C)c(N=S(C)(C)=O)cc2ncnc(Nc3ccc(F)cc3O[C@H](C)C(F)(F)F)c12 [Example 3.03]	–
2.1	118	Cc1c(OC2CCOC2)c(N=S(C)(C)=O)cc2ncnc(Nc3ccc(F)cc3O[C@H](C)C(F)(F)F)c12 (stereo partly drawn) [Example 3.04]	–
